Test results reported in paper PMC12024912, “Druggability Studies of Benzene Sulfonamide Substituted Diarylamide (E3) as a Novel Diuretic” (Biomedicines, 2025).

How the values were obtained:
mice [1] = test: Acute oral toxicity test in mice; type: in vivo
Experimental: (§1) The acute oral toxicity test was performed according to “Guidance on Single Dose Toxicity Study for Pharmaceuticals” (2014), “Guidance for industry: single dose acute toxicity testing for pharmaceuticals” (1996). The initial dose for preliminary trials was established at 5000 mg/kg. A total of three female and three male mice were utilized (one of each sex for preliminary experiments and two for subsequent experiments). Following a 12 h fasting period, one male and one female mouse were selected and administered E3. After 24 h of confirming survival and the absence of abnormal behavior, the remaining four animals were given the same dose. The control group was given solvent (0.5% CMC-Na). Observations of all animals on the day of dosing (d 0) and in the days following were recorded, including general conditions (signs of toxicity, onset of symptoms, recovery period), changes in body weight, and mortality. After 14 d, blood and vital organ tissues were collected, and serum biochemical indicators as well as histopathological examinations were conducted.

[2] = Acute oral toxicity test in mice; type: in vivo; details: both sexes, mouse, in vivo, 5000 mg/kg; mice; oral; 14-day acute toxicity assay
Experimental: as §1

[3] = Liver homogenate metabolic stability, mouse; type: in vitro ADME
Experimental: Plasma from mice, rats, rabbits, and humans was obtained from blood after centrifugation at 3000 r/min for 10 min. Simulated gastric fluid (SGF, pH = 1, containing pepsin) and simulated intestinal fluid (SIF, pH = 6.8, containing trypsin) were configured previously in the experiments. SD rats and mice were collected, and after removing the mucus layer from the small intestine and colon, 20 times the volume of liquid bacterial culture medium was added. An intestinal microbiota suspension was obtained after anaerobic cultivation on a shaking table at 37 °C for 12 h. In the aforementioned systems, E3 was added at a final concentration of 1 μmol/L at 37 °C for different incubation times (0, 10, 20, 30, 60, 120, and 240 min). In liver metabolic stability assays, E3 was incubated with liver microsomes or liver homogenate from mice or rats for 60 min at 37 °C. The stop solution, 5 ng/mL tolbutamide (internal standard, IS) in acetonitrile, was added to stop the metabolic process. Post-centrifugation (18,000× g, 10 min, 4 °C), supernatants were subjected to liquid chromatography–tandem mass spectrometry (LC–MS/MS). Analyte-to-IS peak area ratios quantified residual percentages via Equation (2):Remaining% = (E3peak area/ISpeak area at different time)/(E3peak area/ISpeak area at 0 min) × 100%.(2)

mice [4] = test: Long-term (7 d) diuretic activity in mice; type: in vivo, mouse
Experimental: In a single-dose administration experiment, male wild-type (WT) mice, UT-B^-/- mice, UT-A1^-/- mice, or SD rats were adapted in metabolic cages for 3 d. Food and water were provided ad libitum throughout the experiment. Prior to administration, the bladder of each animal was emptied through gentle abdominal massage, and urine was collected from the metabolic cages every 2 h. Compound E3, suspended in 0.5% CMC-Na at an appropriate concentration, was administered intragastric gavage to the mice or rats (0.16, 0.8, 4, or 20 mg/kg). Vehicle control comprised 0.5% (w/v) CMC-Na. Urinary parameters were determined through the following: volume: Gravimetric analysis (1 g/mL density assumption); osmolality: freezing-point osmometry (Micro-osmometer, […] Associates, Norwood, MA, USA); and urea: diacetyl oxime colorimetry (QuantiChrom® kit, Elabscience, Wuhan, China). In long-term (7 d) diuretic activity experiments, male WT mice, UT-B^-/- mice, UT-A1^-/- mice, and SD rats were acclimatized in metabolic cages (Ugo Basile, Comerio, VA, Italy) for 3 d. Food and water were provided ad libitum throughout the experiment. E3 was suspended in 0.5% CMC-Na and administered at a dose of 4 or 20 mg/kg by intragastric gavage. Urine was collected by metabolic cages every 24 h. Body weight was measured daily. At 4 h after the final administration, a blood sample was obtained by heart puncture. Inner medulla and outer medulla tissue homogenates were prepared, and the supernatant after centrifugation was analyzed for solute concentration and osmolality. Urinary osmolality and urea concentration were measured as above. Serum Na^+, K^+, and Cl^- were measured in a clinical chemistry laboratory, while serum creatinine, ALT, and AST were measured through specific reagent kits (NJJC Bio, Nanjing, China).

[5] = UT-B−/− mice, long-term treatment
[6] = mice, oral 20 mg/kg, consecutive administrations

CC(=O)c1ccc(C(=O)Nc2cccc(NS(=O)(=O)c3ccccc3)c2)o1 [Compound E3, 5-acetyl-N-(3-(phenylsulfonamido)phenyl)furan-2-carboxamide]
Brain organ index (mice [1]; female mice, 5g/kg, n=3): 1.72±0.10% | Kidney organ index (mice [1]; female mice, 5g/kg, n=3): 1.06±0.02% | Liver organ index (mice [1]; female mice, 5g/kg, n=3): 4.86±0.08% | Lung organ index (mice [1]; female mice, 5g/kg, n=3): 0.73±0.04% | Ovary organ index (mice [1]; female mice, 5g/kg, n=3): 0.11±0.02% | Spleen organ index (mice [1]; female mice, 5g/kg, n=3): 0.4±0.01% | Thymus organ index (mice [1]; female mice, 5g/kg, n=3): 0.27±0.06% | Uterus organ index (mice [1]; female mice, 5g/kg, n=3): 0.3±0.02% | Brain organ index (mice [1]; male mice, 5g/kg, n=3): 1.35±0.01% | Epididymis organ index (mice [1]; male mice, 5g/kg, n=3): 0.17±0.01% | Kidney organ index (mice [1]; male mice, 5g/kg, n=3): 1.26±0.02% | Liver organ index (mice [1]; male mice, 5g/kg, n=3): 5.16±0.12% | Lung organ index (mice [1]; male mice, 5g/kg, n=3): 0.72±0.02% | Spleen organ index (mice [1]; male mice, 5g/kg, n=3): 0.37±0.02% | Testis organ index (mice [1]; male mice, 5g/kg, n=3): 0.73±0.02% | Thymus organ index (mice [1]; male mice, 5g/kg, n=3): 0.25±0.01% | H&E staining of heart, kidney, liver, spleen, and brain (mice [1]; mouse, in vivo, po, 5000 mg/kg): no apparent abnormalities | organ indexes (mice [1]; mouse, in vivo, po, 5000 mg/kg): no significant difference | representative blood biochemical indicators (mice [1]; mouse, in vivo, po, 5000 mg/kg): not statistically altered | LD50 at 14 d [2]: > 5000 mg/kg | CLhep, mouse liver homogenate ([3]; calculated with 45 mg/g liver, 50 g liver/kg): 99.3 mL/min/kg | remaining at 1 h ([3]; mouse, liver homogenate, 60 min incubation, 37 °C, n=3): 39.8% | diuretic effect (mice [4]; UT-A1−/− mice, long-term treatment): no significant diuretic effect | urine osmolality (mice [4]; [5]): decreased | urine output (mice [4]; [5]): increased | excretion of non-urea solutes (mice [4]; [6]): no significant difference | urine osmolality (mice [4]; [6]): significantly decreased | urine output (mice [4]; [6]): significantly increased | urine urea concentration (mice [4]; [6]): significantly decreased
